For assay [1], the target named is T1, SbCOMT (caffeic acid O-methyltransferase) (Sorghum bicolor, UniProt C5YH12).
T1 construct: gene SORBI_3007G047300; residues 2–362
T1 sequence (C5YH12 2-362): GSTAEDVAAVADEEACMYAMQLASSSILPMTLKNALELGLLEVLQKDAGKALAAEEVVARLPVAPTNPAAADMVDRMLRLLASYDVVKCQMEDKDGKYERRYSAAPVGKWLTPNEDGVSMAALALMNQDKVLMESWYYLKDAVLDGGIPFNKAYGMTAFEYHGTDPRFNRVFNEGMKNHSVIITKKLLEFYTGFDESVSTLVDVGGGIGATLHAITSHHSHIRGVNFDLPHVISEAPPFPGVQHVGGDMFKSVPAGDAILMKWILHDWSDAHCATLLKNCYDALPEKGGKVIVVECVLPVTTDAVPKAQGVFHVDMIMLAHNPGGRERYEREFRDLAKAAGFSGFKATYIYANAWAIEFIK
Put plainly: ITC. The format is binding.

In assay [2] the target is T2, SbSOMT (stilbene O-methyltransferase) (Sorghum bicolor, UniProt A0A1B6PFV1).
T2 construct: gene SORBI_3007G059100; residues 2–377
T2 sequence (A0A1B6PFV1 2-377): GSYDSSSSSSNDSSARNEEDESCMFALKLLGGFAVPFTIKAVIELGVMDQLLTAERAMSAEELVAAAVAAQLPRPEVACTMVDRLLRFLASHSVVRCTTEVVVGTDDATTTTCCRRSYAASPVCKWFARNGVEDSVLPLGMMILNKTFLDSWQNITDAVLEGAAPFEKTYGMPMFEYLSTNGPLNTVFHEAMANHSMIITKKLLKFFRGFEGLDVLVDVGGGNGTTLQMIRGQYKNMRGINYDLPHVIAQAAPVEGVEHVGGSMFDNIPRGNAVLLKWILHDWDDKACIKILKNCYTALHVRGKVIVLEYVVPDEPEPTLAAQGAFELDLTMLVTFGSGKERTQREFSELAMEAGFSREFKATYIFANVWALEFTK
The experiment in a line: ITC. It is filed as binding.

In assay [3] the target is T1, SbCOMT (caffeic acid O-methyltransferase). The experiment in a line: ITC; […]ʹ-O-methylation enzyme assay. The format is binding. In general terms: In ITC the heat of successive injections is recorded.
Assay [4] deals with T2, SbSOMT (stilbene O-methyltransferase). The experiment in a line: ITC; X-ray crystal structure ([…] Å, ternary complex); enzyme kinetics (Km […]). The format is binding.
Assay [5] concerns the target T1, SbCOMT (caffeic acid O-methyltransferase). The experiment in a line: ITC; enzyme kinetics (Km […]). The format is binding.
Assay [6] addresses T2, SbSOMT (stilbene O-methyltransferase). Put plainly: ITC; X-ray crystal structure ([…] Å, ternary complex). It is filed as binding.
The target is the same in assay [7]. Put plainly: ITC; X-ray crystal structures (binary, and ternary with β-NAD at […] Å); methylation assay. It is filed as binding.
The target of assay [8] is Sorghum bicolor stilbene O-methyltransferase (SbSOMT) (Sorghum bicolor). The experiment in a line: crystal structure; SbSOMT co-crystallised with resveratrol, pinostilbene or pterostilbene, with or without β-NAD; sitting drop vapor diffusion, 18 °C.

For the compound `C[S+](CC[C@H](N)C(=O)[O-])C[C@H]1O[C@@H](n2cnc3c(N)ncnc32)[C@H](O)[C@@H]1O` (stereo partly shown) [SAM], the Kd came to 13 µM in assay [1] (read-out: SbCOMT) and 90 µM in assay [2].

`Oc1cc(O)cc(/C=C/c2ccc(O)c(O)c2)c1` [piceatannol] displayed a Kd in assay [3] of 1.26 µM.

For `COc1cc(O)cc(/C=C/c2ccc(O)cc2)c1` [pinostilbene], the Kd was 2.86 µM in assay [4] and 1.79 µM in assay [5].

As for `COc1cc(/C=C/c2ccc(O)cc2)cc(OC)c1` [pterostilbene], the Kd in assay [1] (read-out: SbCOMT) was determined as 3.99 µM; in assay [6], 11.2 µM.

Regarding `Oc1ccc(/C=C/c2cc(O)cc(O)c2)cc1` [resveratrol], the Kd in assay [1] stood at 1.55 µM; in assay [7], 4.69 µM.

On to “Sorghum bicolor stilbene O-methyltransferase (SbSOMT) (enzyme)”, for which the stoichiometry N – broadly, a count of units in the complex or per binding partner – in assay [8] was found to be 2.
